Measurements as given in ChEMBL document CHEMBL1129229, “Synthesis and trypanocidal activity of the bis-carba analogue of pentamidine” (1996).

Test system: Mus musculus
Experiment: Effective dose against Trypanosoma brucei S427/118 infection in mice, administered ip after 24 hr
Assay type: functional

| SMILES | ED50 [mg/kg] |
| --- | --- |
| N=C(N)c1ccc(CCCCCCCc2ccc(C(=N)N)cc2)cc1 | 7.3 |
| N=C(N)c1ccc(OCCCCCOc2ccc(C(=N)N)cc2)cc1 [PENTAMIDINE] | 0.38 |
